Data on two compounds can be found in ChEMBL document CHEMBL5727988, “Prodrugs of pyridone amides useful as modulators of sodium channels” (2020).

The nature of the assay: Electrophysiology Assay: Patch clamp electrophysiology was used to assess the efficacy and selectivity of sodium channel blockers in dorsal root ganglion neurons. Rat neurons were isolated from the dorsal root ganglions and maintained in culture for 2 to 10 days in the presence of NGF (50 ng/ml) (culture media consisted of NeurobasalA supplemented with B27, glutamine and antibiotics). Small diameter neurons (nociceptors, 8-12 μm in diameter) were visually identified and probed with fine tip glass electrodes connected to an amplifier (Axon Instruments). The “voltage clamp” mode was used to assess the compound's IC50 holding the cells at −60 mV. In addition, the “current clamp” mode was employed to test the efficacy of the compounds in blocking action potential generation in response to current injections.

Each structure is given as a SMILES string. pIC50: −log10 of the molar value.

`COc1cc(NC(=O)c2ccc(C(F)(F)F)cc2F)ccn1`: the pIC50 was 7.36. For the compound `Cc1cc(F)ccc1Oc1cc(C(F)(F)F)ccc1C(=O)Nc1ccn(CCl)c(=O)c1`, the pIC50 was 7.55.
